Source: patent US20220281848A1, “PYRAZOLE-SUBSTITUTED PYRROLIDINONES AS HERBICIDES” (FMC Corporation, priority 2019, published 2022)

System: plants
Test: Test D pre-emergence, other plants of Tables D1 and D3
Type: in vivo
Conditions: preemergent, 20 DAA
Summary of the method: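 Damage was rated visually from 0 (none) to 100 (total), at 20 DAA for pre-emergence and 15 d for post-emergence. Plants grew from safener-treated seed in a glasshouse at 24/18° C. or 20/16° C. day/night, 65% humidity, watered twice daily.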

## CN1CC(c2cc(C(F)(F)F)n(C)n2)C(C(=O)Nc2cccc(F)c2C(F)(F)F)C1=O (racemic) [Compound 19]
Rate 15
  damage to plant (100=total damage to plant; 0=no damage to plant), ABUTH: 0
  damage to plant (100=total damage to plant; 0=no damage to plant), AMARE: 0
  damage to plant (100=total damage to plant; 0=no damage to plant), BIDPI: 0
  damage to plant (100=total damage to plant; 0=no damage to plant), BRAPL: 0
  damage to plant (100=total damage to plant; 0=no damage to plant), CYPES: 0
  damage to plant (100=total damage to plant; 0=no damage to plant), DIGSA: 70
  damage to plant (100=total damage to plant; 0=no damage to plant), ECHCG: 0
  damage to plant (100=total damage to plant; 0=no damage to plant), ELEIN: 0
  damage to plant (100=total damage to plant; 0=no damage to plant), EPHHL: 0
  damage to plant (100=total damage to plant; 0=no damage to plant), GLXMA: 0
  damage to plant (100=total damage to plant; 0=no damage to plant), IPOHE: 0
  damage to plant (100=total damage to plant; 0=no damage to plant), ORYSA: 0
  damage to plant (100=total damage to plant; 0=no damage to plant), PANMI: 0
  damage to plant (100=total damage to plant; 0=no damage to plant), SETFA: 0
  damage to plant (100=total damage to plant; 0=no damage to plant), SORVU: 0
Rate 30
  damage to plant (100=total damage to plant; 0=no damage to plant), ABUTH: 0
  damage to plant (100=total damage to plant; 0=no damage to plant), AMARE: 0
  damage to plant (100=total damage to plant; 0=no damage to plant), BIDPI: 0
  damage to plant (100=total damage to plant; 0=no damage to plant), BRAPL: 40
  damage to plant (100=total damage to plant; 0=no damage to plant), CYPES: 0
  damage to plant (100=total damage to plant; 0=no damage to plant), DIGSA: 90
  damage to plant (100=total damage to plant; 0=no damage to plant), ECHCG: 20
  damage to plant (100=total damage to plant; 0=no damage to plant), ELEIN: 0
  damage to plant (100=total damage to plant; 0=no damage to plant), EPHHL: 0
  damage to plant (100=total damage to plant; 0=no damage to plant), GLXMA: 0
  damage to plant (100=total damage to plant; 0=no damage to plant), IPOHE: 0
  damage to plant (100=total damage to plant; 0=no damage to plant), ORYSA: 0
  damage to plant (100=total damage to plant; 0=no damage to plant), PANMI: 0
  damage to plant (100=total damage to plant; 0=no damage to plant), SETFA: 60
  damage to plant (100=total damage to plant; 0=no damage to plant), SORVU: 0
Rate 60
  damage to plant (100=total damage to plant; 0=no damage to plant), ABUTH: 0
  damage to plant (100=total damage to plant; 0=no damage to plant), AMARE: 0
  damage to plant (100=total damage to plant; 0=no damage to plant), BIDPI: 0
  damage to plant (100=total damage to plant; 0=no damage to plant), BRAPL: 70
  damage to plant (100=total damage to plant; 0=no damage to plant), CYPES: 0
  damage to plant (100=total damage to plant; 0=no damage to plant), DIGSA: 90
  damage to plant (100=total damage to plant; 0=no damage to plant), ECHCG: 80
  damage to plant (100=total damage to plant; 0=no damage to plant), ELEIN: 0
  damage to plant (100=total damage to plant; 0=no damage to plant), EPHHL: 0
  damage to plant (100=total damage to plant; 0=no damage to plant), GLXMA: 0
  damage to plant (100=total damage to plant; 0=no damage to plant), IPOHE: 0
  damage to plant (100=total damage to plant; 0=no damage to plant), ORYSA: 0
  damage to plant (100=total damage to plant; 0=no damage to plant), PANMI: 0
  damage to plant (100=total damage to plant; 0=no damage to plant), SETFA: 80
  damage to plant (100=total damage to plant; 0=no damage to plant), SORVU: 0
Rate 130
  damage to plant (100=total damage to plant; 0=no damage to plant), ABUTH: 0
  damage to plant (100=total damage to plant; 0=no damage to plant), AMARE: 0
  damage to plant (100=total damage to plant; 0=no damage to plant), BIDPI: 0
  damage to plant (100=total damage to plant; 0=no damage to plant), BRAPL: 80
  damage to plant (100=total damage to plant; 0=no damage to plant), CYPES: 0
  damage to plant (100=total damage to plant; 0=no damage to plant), DIGSA: 90
  damage to plant (100=total damage to plant; 0=no damage to plant), ECHCG: 90
  damage to plant (100=total damage to plant; 0=no damage to plant), ELEIN: 0
  damage to plant (100=total damage to plant; 0=no damage to plant), EPHHL: 0
  damage to plant (100=total damage to plant; 0=no damage to plant), GLXMA: 0
  damage to plant (100=total damage to plant; 0=no damage to plant), IPOHE: 0
  damage to plant (100=total damage to plant; 0=no damage to plant), ORYSA: 0
  damage to plant (100=total damage to plant; 0=no damage to plant), PANMI: 0
  damage to plant (100=total damage to plant; 0=no damage to plant), SETFA: 90
  damage to plant (100=total damage to plant; 0=no damage to plant), SORVU: 0
Rate 250
  damage to plant (100=total damage to plant; 0=no damage to plant), ABUTH: 0
  damage to plant (100=total damage to plant; 0=no damage to plant), AMARE: 0
  damage to plant (100=total damage to plant; 0=no damage to plant), BIDPI: 0
  damage to plant (100=total damage to plant; 0=no damage to plant), BRAPL: 80
  damage to plant (100=total damage to plant; 0=no damage to plant), CYPES: 0
  damage to plant (100=total damage to plant; 0=no damage to plant), DIGSA: 90
  damage to plant (100=total damage to plant; 0=no damage to plant), ECHCG: 90
  damage to plant (100=total damage to plant; 0=no damage to plant), ELEIN: 0
  damage to plant (100=total damage to plant; 0=no damage to plant), EPHHL: 0
  damage to plant (100=total damage to plant; 0=no damage to plant), GLXMA: 0
  damage to plant (100=total damage to plant; 0=no damage to plant), IPOHE: 0
  damage to plant (100=total damage to plant; 0=no damage to plant), ORYSA: 0
  damage to plant (100=total damage to plant; 0=no damage to plant), PANMI: 0
  damage to plant (100=total damage to plant; 0=no damage to plant), SETFA: 90
  damage to plant (100=total damage to plant; 0=no damage to plant), SORVU: 0
Rate 500
  damage to plant (100=total damage to plant; 0=no damage to plant), ABUTH: 10
  damage to plant (100=total damage to plant; 0=no damage to plant), AMARE: 0
  damage to plant (100=total damage to plant; 0=no damage to plant), BIDPI: 0
  damage to plant (100=total damage to plant; 0=no damage to plant), BRAPL: 90
  damage to plant (100=total damage to plant; 0=no damage to plant), CYPES: 0
  damage to plant (100=total damage to plant; 0=no damage to plant), DIGSA: 100
  damage to plant (100=total damage to plant; 0=no damage to plant), ECHCG: 90
  damage to plant (100=total damage to plant; 0=no damage to plant), ELEIN: 0
  damage to plant (100=total damage to plant; 0=no damage to plant), EPHHL: 0
  damage to plant (100=total damage to plant; 0=no damage to plant), GLXMA: 0
  damage to plant (100=total damage to plant; 0=no damage to plant), IPOHE: 0
  damage to plant (100=total damage to plant; 0=no damage to plant), ORYSA: 0
  damage to plant (100=total damage to plant; 0=no damage to plant), PANMI: 0
  damage to plant (100=total damage to plant; 0=no damage to plant), SETFA: 90
  damage to plant (100=total damage to plant; 0=no damage to plant), SORVU: 0
